Experimental data as given in US8630703B2, “Treatment utilizing hydrophobic weak bases chemotherapeutic agents and illumination” (Technion Research & Development Foundation Limited, priority 2011, dated 2014).

What was measured:
[1] = tested on: A549 cells; experiment: Lysosome quantification by LysoTracker Red fluorescence; type: cell-based, Human; conditions: for increase in lysosomal fluorescence compared to untreated cells: 20 μM
Procedure: A549 cells were seeded in 96-well plates at a concentration of 500 cells/well for the 48 hour chloroquine treatment, or at a concentration of 1000 cells/well for the 24 hour chloroquine treatment, in a total volume of 100 μl of medium per well. Following an overnight incubation, chloroquine was then added at the indicated concentrations for 24 or 48 hours. Lysosomes were then stained with LysoTracker® Red, detected by fluorescent imaging as described hereinabove, and quantified using EZQuant software.

[2] = tested on: Human A2780 ovarian carcinoma tumors; experiment: PDT of tumors transplanted onto CAM; type: in vivo; conditions: 12 μg per embryo i.v., 420 nm 34 J/cm^2, two rounds; vs C-1379 without illumination
Procedure: Human A2780 ovarian carcinoma cells were used to establish tumor xenografts in the CAM. Tumor spheroids were grown by a hanging drop technique, resulting in spheroids with a predefined size. A2780 cells were suspended in medium containing 20% Methocel™ (Sigma-Aldrich, St. Louis, USA), and 50 μl drops (1×10^6 cells/drop) were dispensed on the internal part of the lid of a Petri dish. After 24 hours, spheroids were harvested and placed on the CAM at embryonic development day (EDD) 7. Two transplanted human A2780 ovarian carcinoma tumor spheroids, containing 10^6 cells, were grown on a single CAM, and 300 μM C-1379 was injected intravenously at a concentration of 12 μg per embryo at EDD 11.
Prior to further treatment, both tumors were imaged by imidazoacridinone (C-1379) fluorescence angiography, as described hereinabove. One minute after C-1379 administration, one of the tumors was illuminated at a wavelength of 420 nm (34 J/cm^2, 70 mW/cm^2). 24 hours later, both tumors were visualized by FITC-dextran angiography, as described hereinabove, and by standard photography. Immediately thereafter, a second round of C-1379 intravenous administration and PDT (on one of the tumors) was performed as previously. The CAM was then incubated for two more days. […]

[3] = tested on: chicken chorioallantoic membrane (CAM) vasculature; experiment: Chorioallantoic membrane (CAM) model of photodynamic therapy; type: in vivo; conditions: for vascular effect in illuminated area: 420 nm
Procedure: Fertilized chicken eggs (Animalco AG) were labeled and transferred into a hatching incubator with a relative air humidity of 65% and a temperature of 37° C. The incubator was equipped with an automatic fan (Savimat). On embryonic development day (EDD) 3, a hole of approximately 3 mm in diameter was opened in the eggshell above the air pouch of the egg and covered with Parafilm® wrapping film (Pechiney) to prevent dehydration and possible infections. The eggs were then returned to the incubator in a static position until use. On EDD 11, the hole in the shell was extended to a diameter of approximately 3 cm in order to provide better access to the chorioallantoic membrane (CAM) during experiments.
Eggs were placed under an Eclipse 600 FN epi-fluorescence microscope equipped with a Plan Apo 4/0.2, working distance 20 objective (Nikon). Microscopic observation and illumination of a region of the CAM was performed as described previously [Lim et al., Photochem Photobiol 2010, 86:397-402; Lim et al., J Med Chem 2010, 53:2865-2874; Nowak-Sliwinska et al., Angiogenesis 2010, 13:281-292]. Illumination was provided by a 100 W high pressure Hg-arc lamp. Light doses were adjusted with neutral density filters and measured with a calibrated Field-Master GS power meter (Coherent Inc.). Fluorescence images were acquired with an F-view II 12-bit monochrome Peltier-cooled digital CCD camera driven with analySIS DOCU software (Soft Imaging System GmbH).
For excitation and detection of imidazoacridinones (IAs) or sunitinib, the microscope was equipped with a filter set (Nikon) characterized by excitation wavelengths of 420±20 nm and emission wavelengths of >470 nm,
After the treatment the eggs were numbered, covered and returned to the incubator. Each treatment group included 5 eggs.
Chorioallantoic membranes (CAMs) were intravenously injecting chorioallantoic membranes with 20 μl of a solution of FITC-dextran (20 kDa, 25 mg/ml). Fluorescence angiography was then performed using light from an Hg-arc lamp and light filters (Nikon) which provided excitation wavelengths of 470±20 nm and emission wavelengths of >520 nm for observing the fluorescence. In order to increase the quality of the recorded angiographs, a light absorber, in the form of India ink, was injected (30 μl) into the extra-embryonic cavity. The purpose of this second injection was to decrease the influence of the CAM auto-fluorescence background, which changes rapidly with time due to the embryo's movement. The India ink was filtered shortly before injection, using a sterile cellulose acetate membrane with 0.2 μm pores (Renner GmbH).
Photodynamic therapy (PDT) was performed at embryo development day (EDD) 11, at which stage the CAM is fully developed and contains a vessel network with a regular capillary plexus. The imidazoacridinones were intravenously injected into the main vessel of the CAM through a 33-gauge needle fitted to a 100 μl syringe (Hamilton), at a concentration of 1 mg/ml and a volume of 100 μl, which corresponds to a dose of 100 μg, or approximately 10 mg/kg embryo body weight.
One minute after injection, a region of the CAM which contained vessels of diameters in a range of 5 to 70 μm was illuminated (420±20 nm) at a light dose of 20 J/cm^2 and an irradiance of […]. […]
The illuminated area was 0.02 cm^2, as delimited by an optical diaphragm. The fluorescence of sunitinib was visible in the vasculature of the CAMs prior to PDT.

[4] = tested on: A549 cells; experiment: XTT cytotoxicity assay with and without illumination
Procedure: (§5) Parental cells and their MDR (multi-drug resistant) sub-lines were seeded in 96-well plates (2×10^4 cells/well in 90 μl growth medium/well). […] Following incubation for 2 hours, the drug-containing medium was replaced by drug-free medium. The cells were then placed on an illuminator plate (Model 460, thin line series, S&S X-Ray Products Inc., Brooklyn, N.Y.) for 1 hour, thereby achieving a light dose of 5 J/cm^2 white light. After illumination, plates were further incubated for an additional 24 hours.
Cell viability was determined using an XTT (2,3-bis-(2-methoxy-4-nitro-5-sulfophenyl)-2H-tetrazolium-5-carboxanilide) Cell Proliferation Kit (Biological Industries). […] Results are presented as mean values of at least three independent experiments.

[5] = tested on: A549/K1.5 cells; experiment: as above; type: cell-based, Human; conditions: A549/K1.5
Procedure: Human non-small cell lung cancer A549 cells and their ABCG2-overexpressing MDR (multi-drug resistant) A549/K1.5 sub-line; ovarian carcinoma cell line 2008 and its stable MRP1-transfectant 2008/MRP1; and human non-small lung cancer cell line SW1573 and its ABCB1-overexpressing subline SW1573/2R160) were maintained in RPMI-1640 medium supplemented with 10% fetal bovine serum, 2 mM glutamine, 100 μg/ml penicillin and streptomycin (Biological Industries, Beth-Haemek, Israel) in a humid atmosphere containing 5% CO2 at 37° C.
as §5
Cell viability was determined using an XTT (2,3-bis-(2-methoxy-4-nitro-5-sulfophenyl)-2H-tetrazolium-5-carboxanilide) Cell Proliferation Kit (Biological Industries). The drug concentrations required to inhibit cell growth by 50% (i.e., IC50 values) were determined from the cell survival curves in the absence and in the presence of illumination. Results are presented as mean values of at least three independent experiments.

[6] = Absorption, emission and excitation spectra; type: physicochemical; conditions: aqueous 0.9% NaCl
Procedure: Stock solutions containing sunitinib or the imidazoacridinones (IAs) C-1375 and C-1379 in 100% dimethyl sulfoxide were diluted with aqueous 0.9% NaCl solution under continuous stirring. Absorption spectra were recorded with a two-beam Cary 500 UV-VIS-NIR spectrophotometer (Varian) in 1 cm long Suprasil® quartz cuvettes (Hellma), at an average scan speed of 600 nm/minute, at 20° C. The steady state emission and excitation spectra were recorded with an LS 50B luminescence spectrometer (Perkin-Elmer).

[7] = tested on: A549/K1.5 cells; experiment: Live cell fluorescent imaging (lysosomal localization and photodestruction); type: cell-based, Human; conditions: for effect on lysosomal accumulation of C-1330: pre-incubation 10 mM ammonium chloride 30 min or 1 μM bafilomycin A1 60 min
Procedure: (§1) Lysosomes and mitochondria were stained by incubating the cells 100 nM LysoTracker® Red or 100 nM MitoTracker® Red, respectively, for 1 hour. For subcellular localization of C-1330, cells were also stained with 10 μM C-1330 for 30 minutes.
(§2) Nuclear staining was performed prior to fluorescence imaging by replacing the growth medium with medium containing 2 μg/ml Hoechst 33342, followed by incubation for 10 minutes. Prior to nuclear staining, A549/K1.5 cells were incubated for 1 hour with 10 μM fumitremorgin C (FTC) to prevent efflux of Hoechst 33342 by ABCG2.
(§3) Live cell fluorescent imaging was performed using an Axiovert 200 inverted fluorescence microscope (Carl Zeiss) equipped with a digital camera. […] Light intensity was maintained at 12.5% of the maximum. The magnification used was ×630.
(§4) Cells were pre-incubated with 10 mM ammonium chloride for 30 minutes or with 1 μM bafilomycin A1 for 60 minutes, prior to being incubated with 10 μM C-1330 for 30 minutes as described hereinabove. Ammonium chloride and bafilomycin A1 remained present during the incubation with C-1330.
A549/K1.5 cells were incubated with 10 μM doxorubicin for 30 minutes, and then observed and illuminated (at 470 nm) by live cell fluorescent imaging as described in the Materials and Methods section. Upon illumination, the cells were photographed every second, in order to observe changes in the cells over time.

[8] = tested on: A549 cells; experiment: as above; type: cell-based, Human; conditions: pre-incubation 10 mM ammonium chloride 30 min or 1 μM bafilomycin A1 60 min
Procedure: as §1, §2, §3, §4
Monolayers of A549 cells were grown in glass-bottom plates and were washed in growth medium. The medium was then replaced with a special isotonic balanced salt solution lacking or containing either N,N′-dimethylthiourea (DMTU), a potent hydroxyl radical and hydrogen peroxide scavenger, L-histidine, a hydroxyl radical and singlet oxygen radical (^1O2) scavenger, or sodium azide, a singlet oxygen radical scavenger. The salt solution consisted of 10 mM HEPES pH 7.4, 120 mM NaCl, 5 mM KCl, 1 mM CaCl2, 1 mM MgCl2, and 25 mM glucose. After incubation for 1 hour, C-1330 was added to the aforementioned solution buffer for an additional 30 minutes, during which the scavengers remained present, in order to load lysosomes. The cells were then examined by fluorescent imaging as described hereinabove.

## CCN(CC)CCCC(C)Nc1ccnc2cc(Cl)ccc12 (stereo not shown) [chloroquine]
[1]; 24 hours
  increase in lysosomal fluorescence compared to untreated cells: 8.4 fold
[1]; 48 hours
  increase in lysosomal fluorescence compared to untreated cells: 21.7 fold
[1]; 20, 50 or 100 μM, 24 hours
  increase in the lysosomes, dose relation: dose-dependent

## CCN(CC)CCCNc1ccc2nc(C)n3c4ccc(OC)cc4c(=O)c1c23 [C-1379]
[2]
  effect on tumor growth: inhibition of tumor growth
  effect on tumor vasculature: vaso-occlusion and destruction of tumor vasculature
[3]; 1 μg/embryo i.v., 20 J/cm^2, 24 hours after illumination
  vascular effect in illuminated area: massive occlusion of the capillary network
[3]; 100 μg/embryo i.v., 20 J/cm^2, 1 minute after injection, 24 hours after treatment
  vascular effect in illuminated area: vaso-occlusion within the illuminated area
[4]; control vs illumination
  Fold sensitization: 32
[4]; no illumination
  Survival at 3000 nM Control: 60 ± 1%
[4]; no illumination, 2 h drug, XTT 24 h later
  LD50 Control: 6.349 ± 0.867 µM
[4]; white light 1 hour (5 J/cm^2)
  LD50 Illumination: 199 ± 31 nM
[4]; white light illumination
  Survival at 3000 nM Illumination: 2 ± 0.3%
[5]; control vs illumination
  Fold sensitization: 20
[5]; no illumination
  LD50 Control: 15.192 ± 0.58 µM
  Survival at 3000 nM Control: 82 ± 4%
[5]; white light 1 hour (5 J/cm^2)
  LD50 Illumination: 747 ± 45 nM
[5]; white light illumination
  Survival at 3000 nM Illumination: 7 ± 0.1%
[6]
  Peak absorption: 443 nm
  Peak emission: 554 nm
  Peak excitation: 447 nm

## COc1cccc2c1C(=O)c1c(O)c3c(c(O)c1C2=O)C[C@@](O)(C(=O)CO)C[C@@H]3O[C@H]1C[C@H](N)[C@H](O)[C@H](C)O1 [doxorubicin]
[7]; A549/K1.5, 10 μM, 470 nm, 20 seconds of illumination
  lysosomal photodestruction upon illumination: nearly all of the lysosomes had ruptured

## Cl.N [ammonium chloride]
[8]
  effect on lysosomal accumulation of C-1330: completely abolished
[7]; A549/K1.5
  effect on lysosomal accumulation of C-1330: completely abolished

## CO/C1=C\C(C)=C\[C@@H](C)[C@@H](O)[C@@H](C)C/C(C)=C/C=C/[C@H](OC)[C@@H]([C@@H](C)[C@@H](O)[C@H](C)[C@@]2(O)C[C@@H](O)[C@H](C)[C@@H](C(C)C)O2)OC1=O [bafilomycin A1]
[8]
  effect on lysosomal accumulation of C-1330: completely abolished
[7]; A549/K1.5
  effect on lysosomal accumulation of C-1330: completely abolished

## CCN(CC)CCNc1ccc2ncn3c4ccc(O)cc4c(=O)c1c23 [C-1311]
[7]; MDR cells, 20 μM C-1311 + 10 μM fumitremorgin C, 2 hours, illumination
  lysosomal photodestruction on co-treatment with ABCG2 inhibitor: intense lysosomal photodestruction

## CCN(CC)CCNC(=O)c1c(C)[nH]c(/C=C2\C(=O)Nc3ccc(F)cc32)c1C [sunitinib, reference compound]
[3]; administered intravenously
  location of drug fluorescence in CAM: visible within the vasculature
[3]; administered topically
  location of drug fluorescence in CAM: visible exclusively outside the vasculature
